# Like-named read-outs stand apart in the source and are kept apart here.
# Assays:
# [1] = molecular target: T1, erythrocyte AChE (Homo sapiens, UniProt P22303); test: Exposure Activity Ratio (EAR) and Dietary Comparator Ratio (DCR) calculation; design: from tissue; host or cells: human whole peripheral blood (erythrocytes), K2EDTA anticoagulant; conditions: human
# Protocol: The DCR value for an exposure scenario was calculated as the ratio of EARtest and EARcomparator (eq 1). The EARtest is scenario-specific and was defined with the IC50 of the tested organophosphate oxon for in vitro erythrocyte AChE inhibition and the PBK model-simulated CBmaxoxon at the defined exposure level (eq 2).
# The DCR-based predictions were evaluated by comparing the obtained DCR results with actual knowledge of the adverse health effects reported for the respective exposure scenarios. Adverse effects cannot be ruled out for human exposure scenarios with a DCR result greater than 1, while exposure scenarios with a DCR result less than or equal to 1 are considered to raise no safety concern.[18]−[20] Once validated as an adequate predicting tool, the DCR approach was applied for evaluating the safety of exposure scenarios, for which no information on the resulting toxic outcomes was reported at the defined dose levels for humans.
# [2] = molecular target: T1, erythrocyte AChE; conditions: cited from earlier work; for reported or expected adverse health outcome: human, ref Table S2
# [3] = QSAR-based prediction; ref Punt et al. 2022; Moerenhout et al. 2024; cited from earlier work
# [4] = 214 mg/kg BW (15 g) acute oral, person, ref Klemmer et al. 1978
# [5] = 357 mg/kg BW (25 g) acute oral, person seven, ref Klemmer et al. 1978
# [6] = 357 mg/kg BW (25 g) acute oral, person six, ref Klemmer et al. 1978
# [7] = 643 mg/kg BW (45 g) acute oral, person, ref Klemmer et al. 1978
# T1 sequence (P22303 32-617 isoform P22303-2 limits assumed): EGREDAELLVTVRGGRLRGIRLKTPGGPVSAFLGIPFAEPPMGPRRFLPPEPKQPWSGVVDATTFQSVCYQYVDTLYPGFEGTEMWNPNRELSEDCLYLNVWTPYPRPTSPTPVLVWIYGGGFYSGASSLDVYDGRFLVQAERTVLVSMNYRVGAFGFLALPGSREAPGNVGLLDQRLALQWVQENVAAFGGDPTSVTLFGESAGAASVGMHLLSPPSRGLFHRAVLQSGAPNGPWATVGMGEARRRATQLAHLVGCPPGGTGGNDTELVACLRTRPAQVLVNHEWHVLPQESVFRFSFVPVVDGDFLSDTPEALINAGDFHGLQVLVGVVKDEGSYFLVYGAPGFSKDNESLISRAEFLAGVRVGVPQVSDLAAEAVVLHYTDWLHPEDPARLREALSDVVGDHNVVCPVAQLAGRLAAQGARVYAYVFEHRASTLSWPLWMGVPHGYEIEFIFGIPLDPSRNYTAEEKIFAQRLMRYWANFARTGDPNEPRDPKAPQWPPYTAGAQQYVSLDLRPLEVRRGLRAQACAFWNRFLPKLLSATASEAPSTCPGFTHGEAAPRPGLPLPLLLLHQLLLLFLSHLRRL
smiles,measurement,setting,value
CCOP(=S)(OCC)Oc1cc(C)nc(C(C)C)n1 [diazinon],calculated DCR value,[1]; single oral 0.011 mg/kg BW,2.1 × 10^–4
same,calculated EARtest value,[1]; single oral 0.011 mg/kg BW,8.3 × 10^–6
same,calculated DCR value,[1]; single oral 0.03 mg/kg BW,5.7 × 10^–4
same,calculated EARtest value,[1]; single oral 0.03 mg/kg BW,2.3 × 10^–5
same,calculated DCR value,[1]; single oral 0.12 mg/kg BW,2.3 × 10^–3
same,calculated EARtest value,[1]; single oral 0.12 mg/kg BW,9.1 × 10^–5
same,calculated DCR value,[1]; single oral 0.20 mg/kg BW,3.8 × 10^–3
same,calculated EARtest value,[1]; single oral 0.20 mg/kg BW,1.5 × 10^–4
same,calculated EARtest value,[1]; single oral 0.21 mg/kg BW,1.6 × 10^–4
same,calculated EARtest value,[1]; single oral 0.30 mg/kg BW,2.3 × 10^–4
same,calculated DCR value,[1]; single oral 200 mg/kg BW,2.1
same,calculated EARtest value,[1]; single oral 200 mg/kg BW,0.084
same,calculated DCR value,[1]; single oral 214 mg/kg BW,2.2
same,calculated EARtest value,[1]; single oral 214 mg/kg BW,0.085
same,calculated DCR value,[1]; single oral 293 mg/kg BW,2.3
same,calculated EARtest value,[1]; single oral 293 mg/kg BW,0.089
same,calculated DCR value,[1]; single oral 323 mg/kg BW,2.3
same,calculated EARtest value,[1]; single oral 323 mg/kg BW,0.090
same,calculated DCR value,[1]; single oral 357 mg/kg BW,2.3
same,calculated EARtest value,[1]; single oral 357 mg/kg BW,0.091
same,calculated DCR value,[1]; single oral 429 mg/kg BW,2.3
same,calculated EARtest value,[1]; single oral 429 mg/kg BW,0.093
same,calculated DCR value,[1]; single oral 643 mg/kg BW,2.4
same,calculated EARtest value,[1]; single oral 643 mg/kg BW,0.095
same,Reported erythrocyte AChE activity/inhibition,"[2]; 0.011 mg/kg BW single oral, 4 male and 1 female volunteers, ref Garfitt et al. 2002",No erythrocyte AChE inhibition
same,Reported erythrocyte AChE activity/inhibition,"[2]; 0.03 mg/kg BW single oral, 7 male volunteers, ref APVMA. 2011, US EPA. 2001 (original data of Boyeson. 2000)",No erythrocyte AChE inhibition
same,Reported erythrocyte AChE activity/inhibition,"[2]; 0.12 mg/kg BW single oral, 7 male volunteers, ref APVMA. 2011, US EPA. 2001 (original data of Boyeson. 2000)",No erythrocyte AChE inhibition
same,Reported erythrocyte AChE activity/inhibition,"[2]; 0.20 mg/kg BW single oral, 7 male volunteers, ref APVMA. 2011, US EPA. 2001 (original data of Boyeson. 2000)",No erythrocyte AChE inhibition
same,Reported erythrocyte AChE activity/inhibition,"[2]; 0.21 mg/kg BW single oral, 7 male volunteers, APVMA: significant inhibition, US EPA: limited, ref APVMA. 2011, US EPA. 2001 (original data of Boyeson. 2000)",Conflicting opinions
same,Reported concomitant effects (signs and symptoms),"[2]; 0.21 mg/kg BW single oral, 7 male volunteers, might occur, ref APVMA. 2011, US EPA. 2001 (original data of Boyeson. 2000)",Mild clinical signs or symptoms
same,Reported erythrocyte AChE activity/inhibition,"[2]; 0.30 mg/kg BW single oral, 1 volunteer, APVMA: inhibition greater than at 0.20 mg/kg BW, US EPA: no inhibition, ref APVMA. 2011, US EPA. 2001 (original data of Boyeson. 2000)",Conflicting opinions
same,Reported concomitant effects (signs and symptoms),"[2]; 0.30 mg/kg BW single oral, 1 volunteer, might occur, ref APVMA. 2011, US EPA. 2001 (original data of Boyeson. 2000)",Mild clinical signs or symptoms
same,Reported concomitant effects (signs and symptoms),"[2]; 200 mg/kg BW (14 - 57 g) acute oral, 14 males and 11 females, ref APVMA. 2011 (original data of Mutalik et al. 1962)",Toxic symptoms occurred
same,Reported concomitant effects (signs and symptoms),[2]; [4],toxic symptoms occurred
same,Reported erythrocyte AChE activity/inhibition,[2]; [4],Significantly decreased
same,Reported concomitant effects (signs and symptoms),"[2]; 293 mg/kg BW (22 g) acute oral, person, ref Poklis et al. 1980",Died
same,Reported concomitant effects (signs and symptoms),"[2]; 323 mg/kg BW (22.6 g) acute oral, person, ref APVMA. 2011 (original data of Banerjee. 1967)",Toxic symptoms occurred
same,Reported concomitant effects (signs and symptoms),[2]; [5],toxic symptoms occurred
same,Reported erythrocyte AChE activity/inhibition,[2]; [5],Significantly decreased
same,Reported concomitant effects (signs and symptoms),[2]; [6],toxic symptoms occurred
same,Reported erythrocyte AChE activity/inhibition,[2]; [6],Significantly decreased
same,Reported concomitant effects (signs and symptoms),"[2]; 429 mg/kg BW (30 g) acute oral, person, ref Martinez-Chuecos et al. 1992",Toxic symptoms occurred
same,Reported concomitant effects (signs and symptoms),[2]; [7],toxic symptoms occurred
same,Reported erythrocyte AChE activity/inhibition,[2]; [7],Significantly decreased
same,reported or expected adverse health outcome,"[2]; single oral 0.011 mg/kg BW, 0.011 mg/kg",negative
same,reported or expected adverse health outcome,"[2]; single oral 0.011 mg/kg BW, listed as Diazinon, 0.011 mg/kg",No
same,reported or expected adverse health outcome,"[2]; single oral 0.03 mg/kg BW, 0.03 mg/kg",negative
same,reported or expected adverse health outcome,"[2]; single oral 0.03 mg/kg BW, listed as Diazinon, 0.03 mg/kg",No
same,reported or expected adverse health outcome,"[2]; single oral 0.12 mg/kg BW, 0.12 mg/kg",negative
same,reported or expected adverse health outcome,"[2]; single oral 0.12 mg/kg BW, listed as Diazinon, 0.12 mg/kg",No
same,reported or expected adverse health outcome,"[2]; single oral 0.20 mg/kg BW, 0.2 mg/kg",negative
same,reported or expected adverse health outcome,"[2]; single oral 0.20 mg/kg BW, listed as Diazinon, 0.2 mg/kg",No
same,reported or expected adverse health outcome,"[2]; single oral 200 mg/kg BW, 200 mg/kg",positive
same,reported or expected adverse health outcome,"[2]; single oral 200 mg/kg BW, listed as Diazinon, 200 mg/kg",Yes
same,reported or expected adverse health outcome,"[2]; single oral 214 mg/kg BW, 214 mg/kg",positive
same,reported or expected adverse health outcome,"[2]; single oral 214 mg/kg BW, listed as Diazinon, 214 mg/kg",Yes
same,reported or expected adverse health outcome,"[2]; single oral 293 mg/kg BW, 293 mg/kg",positive
same,reported or expected adverse health outcome,"[2]; single oral 293 mg/kg BW, listed as Diazinon, 293 mg/kg",Yes
same,reported or expected adverse health outcome,"[2]; single oral 323 mg/kg BW, 323 mg/kg",positive
same,reported or expected adverse health outcome,"[2]; single oral 323 mg/kg BW, listed as Diazinon, 323 mg/kg",Yes
same,reported or expected adverse health outcome,"[2]; single oral 357 mg/kg BW, 357 mg/kg",positive
same,reported or expected adverse health outcome,"[2]; single oral 357 mg/kg BW, listed as Diazinon, 357 mg/kg",Yes
same,reported or expected adverse health outcome,"[2]; single oral 429 mg/kg BW, 429 mg/kg",positive
same,reported or expected adverse health outcome,"[2]; single oral 429 mg/kg BW, listed as Diazinon, 429 mg/kg",Yes
same,reported or expected adverse health outcome,"[2]; single oral 643 mg/kg BW, 643 mg/kg",positive
same,reported or expected adverse health outcome,"[2]; single oral 643 mg/kg BW, listed as Diazinon, 643 mg/kg",Yes
same,Oral absorption rate constant,[3],0.73 h⁻¹

# — article PMC11966747, “Next Generation Risk Assessment of Acute Neurotoxicity from Organophosphate Exposures Using the In Vitro–In Silico Derived Dietary Comparator Ratio” (Environmental Science & Technology, 2025)
